Measured values reported in PubChem BioAssay AID1963864 (Molecular Pharmacology Branch, DTP, NCI, 2024).
pIC50: −log10 of the molar value.

Test system: KRAS PDC multicell spheroid viability
Test: Anticancer human tumor 521955-158-R6-J3-PDC patient-derived pancreatic carcinoma cell line growth inhibition [KRAS2]
Conditions: for pIC50: curve of first compound; for viability, T/C: stronger effect = lower value
Procedure, shortened: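 Combination screen of spheroid viability in tumor-cell co-cultures with endothelial (HUVEC) and mesenchymal stem cell stroma. Each agent was tested in half-log dilutions, topping at clinical Cmax or at 10 microM without a known Cmax.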

[1] = second compound 0.1 µM, first compound 0.0316 µM
[2] = second compound 0.1 µM, first compound 0.1 µM
[3] = second compound 0.316 µM, first compound 0.0316 µM
[4] = second compound 0.316 µM, first compound 0.1 µM
[5] = second compound 1 µM, first compound 0.0316 µM
[6] = second compound 1 µM, first compound 0.1 µM
[7] = second compound 3.16 µM, first compound 0.0316 µM
[8] = second compound 3.16 µM, first compound 0.1 µM
[9] = second compound 10 µM, first compound 0.0316 µM
[10] = second compound 10 µM, first compound 0.1 µM
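Note: drug exposure lasted seven days.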
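Throughout, for viability, T/C: 100% = DMSO vehicle wells and lower means fewer viable cells.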

SMILES: CC(C)n1nc(-c2ccc3oc(N)nc3c2)c2c(N)ncnc21 + CNCc1ccccc1-c1csc(C(C)Nc2nc(C)nc3cc(OC)c(OC)cc23)c1
- pIC50 (second compound 0.1 µM): 7.11
- pIC50 (second compound 0.316 µM): 7.38
- pIC50 (second compound 1 µM): 7.19
- pIC50 (second compound 3.16 µM): > 9.50
- pIC50 (second compound 10 µM): > 9.50
- viability, T/C (second compound 0.1 µM, first compound 0.000316 µM): 88.1%
- viability, T/C (second compound 0.1 µM, first compound 0.001 µM): 89.9%
- viability, T/C (second compound 0.1 µM, first compound 0.00316 µM): 81.2%
- viability, T/C (second compound 0.1 µM, first compound 0.01 µM): 71.2%
- viability, T/C [1]: 63.3%
- viability, T/C [2]: 46.2%
- viability, T/C (second compound 0.316 µM, first compound 0.000316 µM): 82.3%
- viability, T/C (second compound 0.316 µM, first compound 0.001 µM): 81.1%
- viability, T/C (second compound 0.316 µM, first compound 0.00316 µM): 74.6%
- viability, T/C (second compound 0.316 µM, first compound 0.01 µM): 61.1%
- viability, T/C [3]: 54.3%
- viability, T/C [4]: 42.1%
- viability, T/C (second compound 1 µM, first compound 0.000316 µM): 78.5%
- viability, T/C (second compound 1 µM, first compound 0.001 µM): 73%
- viability, T/C (second compound 1 µM, first compound 0.00316 µM): 73.6%
- viability, T/C (second compound 1 µM, first compound 0.01 µM): 64.2%
- viability, T/C [5]: 54.6%
- viability, T/C [6]: 47.2%
- viability, T/C (second compound 3.16 µM, first compound 0.000316 µM): 1.65%
- viability, T/C (second compound 3.16 µM, first compound 0.001 µM): 1.07%
- viability, T/C (second compound 3.16 µM, first compound 0.00316 µM): 1.66%
- viability, T/C (second compound 3.16 µM, first compound 0.01 µM): 1.02%
- viability, T/C [7]: 1.57%
- viability, T/C [8]: 1.6%
- viability, T/C (second compound 10 µM, first compound 0.000316 µM): 0.75%
- viability, T/C (second compound 10 µM, first compound 0.001 µM): 0.17%
- viability, T/C (second compound 10 µM, first compound 0.00316 µM): 0.16%
- viability, T/C (second compound 10 µM, first compound 0.01 µM): 0.15%
- viability, T/C [9]: 0.16%
- viability, T/C [10]: 0.24%

SMILES: CC1(C)CCC(CN2CCN(c3ccc(C(=O)NS(=O)(=O)c4ccc(NCC5CCOCC5)c([N+](=O)[O-])c4)c(Oc4cnc5[nH]ccc5c4)c3)CC2)=C(c2ccc(Cl)cc2)C1 + CNCc1ccccc1-c1csc(C(C)Nc2nc(C)nc3cc(OC)c(OC)cc23)c1
- pIC50 (second compound 0.1 µM): 5.17
- pIC50 (second compound 0.316 µM): 5.29
- pIC50 (second compound 1 µM): 5.42
- pIC50 (second compound 3.16 µM): > 7.50
- pIC50 (second compound 10 µM): > 7.50
- viability, T/C [1]: 98.5%
- viability, T/C [2]: 98.1%
- viability, T/C (second compound 0.1 µM, first compound 0.316 µM): 94.6%
- viability, T/C (second compound 0.1 µM, first compound 1 µM): 97.1%
- viability, T/C (second compound 0.1 µM, first compound 3.16 µM): 81.3%
- viability, T/C (second compound 0.1 µM, first compound 10 µM): 32.9%
- viability, T/C [3]: 96.8%
- viability, T/C [4]: 90.5%
- viability, T/C (second compound 0.316 µM, first compound 0.316 µM): 90.2%
- viability, T/C (second compound 0.316 µM, first compound 1 µM): 84.2%
- viability, T/C (second compound 0.316 µM, first compound 3.16 µM): 71%
- viability, T/C (second compound 0.316 µM, first compound 10 µM): 23.2%
- viability, T/C [5]: 83%
- viability, T/C [6]: 83.6%
- viability, T/C (second compound 1 µM, first compound 0.316 µM): 84.4%
- viability, T/C (second compound 1 µM, first compound 1 µM): 82.6%
- viability, T/C (second compound 1 µM, first compound 3.16 µM): 56.8%
- viability, T/C (second compound 1 µM, first compound 10 µM): 14.7%
- viability, T/C [7]: 0.59%
- viability, T/C [8]: 1.4%
- viability, T/C (second compound 3.16 µM, first compound 0.316 µM): 0.57%
- viability, T/C (second compound 3.16 µM, first compound 1 µM): 0.81%
- viability, T/C (second compound 3.16 µM, first compound 3.16 µM): 1.65%
- viability, T/C (second compound 3.16 µM, first compound 10 µM): 3.03%
- viability, T/C [9]: 0.22%
- viability, T/C [10]: 0.61%
- viability, T/C (second compound 10 µM, first compound 0.316 µM): 0.21%
- viability, T/C (second compound 10 µM, first compound 1 µM): 0.23%
- viability, T/C (second compound 10 µM, first compound 3.16 µM): 1.01%
- viability, T/C (second compound 10 µM, first compound 10 µM): 0.27%
